# Measurements taken from patent publication US20260184710A1, “CASITAS B-LINEAGE LYMPHOMA PROTOONCOGENE B (CBL-B) DEGRADING COMPOUNDS AND ASSOCIATED METHODS OF USE” (Arvinas Operations, Inc., priority 2022, published 2026).
# Biological target: T1, Cbl-b (Homo sapiens, UniProt Q13191)
# T1 construct: Cbl-b-HiBit KI Jurkat Cells were purchased from Promega; host or cells: Cbl-b-HiBiT knock-in Jurkat cells
# Assay: Cbl-b Degradation Method B (Nano-Glo HiBiT lytic detection)
# Format: cell-based
# Details: Cbl-b-HiBit KI Jurkat Cells, incubated at least 6-24 hours; for DC50: half maximal degradation, read-out: Cbl-b Degredation Method B IC50; for Dmax: maximum degradation observed, read-out: Cbl-b Degredation Method B Dmax (%)
# Description: Cbl-b Degradation Method B [table] Cbl-b-HiBit KI Jurkat Cells were purchased from Promega, and cell media consisted of RPMI 1640 with 10% […] and 1% pen/strep. The cells were counted, measured for viability, and 35 μL of the cell solution was seeded into 384 well flat bottom plates at a ratio of 20,000 cells per 35 μL. After which, the plates were incubated for ˜24 hours at 37° C. and 5% CO2. Compounds were ordered from Evotec in a 384 well plate at a 1 mM top concentration in DMSO and serially diluted 1:3 in DMSO for an 11-point dose response. Using the Bravo instrument, 1 uL of compound solution or DMSO was transferred to 125 uL of media. Each well was treated with 5 μL of compound plus media mixture or DMO and subsequently incubated for at least 6-24 hours at 37° C. and 5% CO2. After incubation, 30 μL of either NanoGlo media was added to each cell, and the plates read on the Synergy Neo2 machine. The concentration of an exemplary compound that leads to half maximal degradation (DC50) as well as the maximum degradation observed (Dmax, conventionally expressed as a percentage of control) is shown below in Table 2.
# T1 sequence (Q13191 whole entry): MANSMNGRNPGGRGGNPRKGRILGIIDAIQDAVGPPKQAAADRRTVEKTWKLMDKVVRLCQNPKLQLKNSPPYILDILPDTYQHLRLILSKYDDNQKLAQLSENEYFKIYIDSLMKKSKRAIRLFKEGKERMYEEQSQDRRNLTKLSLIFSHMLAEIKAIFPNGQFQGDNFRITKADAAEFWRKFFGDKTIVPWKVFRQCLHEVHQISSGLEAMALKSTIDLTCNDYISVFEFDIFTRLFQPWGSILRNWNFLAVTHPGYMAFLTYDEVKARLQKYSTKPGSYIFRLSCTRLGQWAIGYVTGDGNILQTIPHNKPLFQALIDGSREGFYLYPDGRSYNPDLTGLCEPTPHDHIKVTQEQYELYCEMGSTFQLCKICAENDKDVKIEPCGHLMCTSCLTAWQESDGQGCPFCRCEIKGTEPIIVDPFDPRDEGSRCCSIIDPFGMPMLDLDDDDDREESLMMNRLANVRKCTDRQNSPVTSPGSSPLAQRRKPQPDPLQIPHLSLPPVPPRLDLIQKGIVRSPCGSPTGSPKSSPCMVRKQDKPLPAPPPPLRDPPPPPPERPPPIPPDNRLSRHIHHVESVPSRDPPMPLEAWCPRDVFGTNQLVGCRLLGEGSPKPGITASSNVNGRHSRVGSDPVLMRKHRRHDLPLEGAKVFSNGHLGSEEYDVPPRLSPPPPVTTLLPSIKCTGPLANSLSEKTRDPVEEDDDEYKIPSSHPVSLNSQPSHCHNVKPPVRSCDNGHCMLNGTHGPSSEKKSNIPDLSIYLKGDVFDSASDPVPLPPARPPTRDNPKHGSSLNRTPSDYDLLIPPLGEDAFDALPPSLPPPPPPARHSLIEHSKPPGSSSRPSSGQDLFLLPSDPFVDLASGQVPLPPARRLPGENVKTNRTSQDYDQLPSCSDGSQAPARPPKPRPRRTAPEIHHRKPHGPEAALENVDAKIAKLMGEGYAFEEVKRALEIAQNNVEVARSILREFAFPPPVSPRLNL
SMILES,DC50 [nM],Dmax [%]
"COc1cc(N2CCN(CC3CCN(Cc4cc5c(c(C(F)(F)F)c4)CN(c4cccc(C6(Cc7nncn7C)COC6)c4)C5=O)CC3)CC2)cc2c1C(=O)N(C1CCC(=O)NC1=O)C2=O (stereo not drawn) [Example 51, 2-(2,6-dioxopiperidin-3-yl)-4-methoxy-6-{4-[(1-{[2-(3-{3-[(4-methyl-4H-1,2,4-triazol-3-yl)methyl]oxetan-3-yl}phenyl)-3-oxo-7-(trifluoromethyl)-2,3-dihydro-1H-isoindol-5-yl]methyl}piperidin-4-yl)methyl]piperazin-1-yl}-2,3-dihydro-1H-isoindole-1,3-dione]",> 500,–
"Cn1cnnc1CC1(c2cccc(-n3cc4ccc(CN5CCC[C@H](CN6CCN(C[C@H]7CC[C@H](OC8CCN(c9ccc%10c(c9F)CN(C9CCC(=O)NC9=O)C%10=O)CC8)CC7)CC6)C5)cc4n3)c2)COC1 (stereo partly drawn) [Example 147, 3-[4-fluoro-5-[4-[4-[[4-[[(3S)-1-[[2-[3-[3-[(4-methyl-1,2,4-triazol-3-yl)methyl]oxetan-3-yl]phenyl]indazol-6-yl]methyl]-3-piperidyl]methyl]piperazin-1-yl]methyl]cyclohexoxy]-1-piperidyl]-1-oxo-isoindolin-2-yl]piperidine-2,6-dione]",> 500,–
"COc1ccc(N2CCC(CN3CCN(Cc4cc5c(c(C(F)(F)F)c4)CN(c4cccc(C6(Cc7nncn7C)COC6)c4)C5=O)CC3)CC2)cc1C(=O)NC1CCC(=O)NC1=O (stereo not drawn) [Example 56, N-(2,6-dioxopiperidin-3-yl)-2-methoxy-5-{4-[(4-{[2-(3-{3-[(4-methyl-4H-1,2,4-triazol-3-yl)methyl]oxetan-3-yl}phenyl)-3-oxo-7-(trifluoromethyl)-2,3-dihydro-1H-isoindol-5-yl]methyl}piperazin-1-yl)methyl]piperidin-1-yl}benzamide]",> 500,–
"CC1c2nc(N3CCC(O[C@H]4CC[C@@H](CN5C[C@@H]6C[C@H]5CN6Cc5cc6c(c(C(F)(F)F)c5)CN(c5cccc(C7(Cc8nncn8C)CC7)c5)C6=O)CC4)CC3)ccc2C(=O)N1C1CCC(=O)NC1=O (stereo partly drawn) [Example 218, 3-[7-methyl-5-oxo-2-(4-{[(1r,4r)-4-{[(1S,4S)-5-{[2-(3-{1-[(4-methyl-4H-1,2,4-triazol-3-yl)methyl]cyclopropyl}phenyl)-3-oxo-7-(trifluoromethyl)-2,3-dihydro-1H-isoindol-5-yl]methyl}-2,5-diazabicyclo[2.2.1]heptan-2-yl]methyl}cyclohexyl]oxy}piperidin-1-yl)-5H,6H,7H-pyrrolo[3,4-b]pyridin-6-yl]piperidine-2,6-dione]",5 to 50,35 to 70
"COc1ccc(C(=O)N2CCC(CN3CCN(Cc4cc5c(c(C(F)(F)F)c4)CN(c4cccc(C6(Cc7nncn7C)COC6)c4)C5=O)CC3)CC2)cc1N1CCC(=O)NC1=O [Example 53, 1-(2-methoxy-5-{4-[(4-{[2-(3-{3-[(4-methyl-4H-1,2,4-triazol-3-yl)methyl]oxetan-3-yl}phenyl)-3-oxo-7-(trifluoromethyl)-2,3-dihydro-1H-isoindol-5-yl]methyl}piperazin-1-yl)methyl]piperidine-1-carbonyl}phenyl)-1,3-diazinane-2,4-dione]",> 500,–
"Cn1cnnc1CC1(c2cccc(N3Cc4c(cc(CN5CCN(c6ccc7c(c6)C(=O)N(C6CCC(=O)NC6=O)C7=O)CC5)cc4C(F)(F)F)C3=O)c2)COC1 (stereo not drawn) [Example 32, 2-(2,6-dioxopiperidin-3-yl)-5-(4-{[2-(3-{3-[(4-methyl-4H-1,2,4-triazol-3-yl)methyl]oxetan-3-yl}phenyl)-3-oxo-7-(trifluoromethyl)-2,3-dihydro-1H-isoindol-5-yl]methyl}piperazin-1-yl)-2,3-dihydro-1H-isoindole-1,3-dione]",50 to 500,> 70
"Cn1cnnc1CC1(c2cccc(N3Cc4c(cc(CN5CCC(CCCN6CCN(c7ccc8c(c7)C(=O)N(C7CCC(=O)NC7=O)C8=O)CC6)CC5)cc4C(F)(F)F)C3=O)c2)COC1 (stereo not drawn) [Example 61, 2-(2,6-dioxopiperidin-3-yl)-5-{4-[3-(1-{[2-(3-{3-[(4-methyl-4H-1,2,4-triazol-3-yl)methyl]oxetan-3-yl}phenyl)-3-oxo-7-(trifluoromethyl)-2,3-dihydro-1H-isoindol-5-yl]methyl}piperidin-4-yl)propyl]piperazin-1-yl}-2,3-dihydro-1H-isoindole-1,3-dione]",> 500,–
"Cn1cnnc1CC1(c2cccc(N3Cc4c(cc(CN5CCC(c6ccc7c(c6)CN(C6CCC(=O)NC6=O)C7=O)CC5)cc4C(F)(F)F)C3=O)c2)COC1 (stereo not drawn) [Example 34, 3-[5-(1-{[2-(3-{3-[(4-methyl-4H-1,2,4-triazol-3-yl)methyl]oxetan-3-yl}phenyl)-3-oxo-7-(trifluoromethyl)-2,3-dihydro-1H-isoindol-5-yl]methyl}piperidin-4-yl)-1-oxo-2,3-dihydro-1H-isoindol-2-yl]piperidine-2,6-dione]",> 500,–
"CC1c2nc(N3CCC(O[C@H]4CC[C@H](CN5CCN(Cc6cc(C(F)(F)F)c7cn(-c8cccc(C9(Cc%10nncn%10C)CC(C#N)C9)c8)nc7c6)C(C)(C)C5)CC4)CC3)ccc2C(=O)N1C1CCC(=O)NC1=O (stereo partly drawn) [Example 252, (1r**,3r**)-3-(3-{6-[(2,2-dimethyl-4-{[(1r*,4r*)-4-({1-[6-(2,6-dioxopiperidin-3-yl)-7-methyl-5-oxo-5H,6H,7H-pyrrolo[3,4-b]pyridin-2-yl]piperidin-4-yl}oxy)cyclohexyl]methyl}piperazin-1-yl)methyl]-4-(trifluoromethyl)-2H-indazol-2-yl}phenyl)-3-[(4-methyl-4H-1,2,4-triazol-3-yl)methyl]cyclobutane-1-carbonitrile]",5 to 50,35 to 70

# Now from value to compound:
DC50 [nM],Dmax [%],SMILES
5 to 50,35 to 70,"CC1c2nc(N3CCC(O[C@H]4CC[C@H](CN5CCN(Cc6ccc7c(n6)C(=O)N(c6cccc(C8(Cc9nncn9C)COC8)c6)C7)CC5)CC4)CC3)ccc2C(=O)N1C1CCC(=O)NC1=O (stereo partly drawn) [Example 151, 3-[7-methyl-2-[4-[4-[[4-[[6-[3-[3-[(4-methyl-1,2,4-triazol-3-yl)methyl]oxetan-3-yl]phenyl]-7-oxo-5H-pyrrolo [3,4-b]pyridin-2-yl]methyl]piperazin-1-yl]methyl]cyclohexoxy]-1-piperidyl]-5-oxo-7H-pyrrolo [3,4-b]pyridin-6-yl]piperidine-2,6-dione]"
< 5,–,"CC(C)n1c(=O)n(C2CCC(=O)NC2=O)c2ccc(N3CCC(CN4CCN(C[C@H]5CCCN(Cc6cc7c(c(C(F)(F)F)c6)CN(c6cccc(C8(Cc9nncn9C)CC(C#N)C8)c6)C7=O)C5)C(C)(C)C4)CC3)cc21 (stereo partly drawn) [Example 273, (1r*,3r*)-3-[3-(6-{[(3S)-3-{[4-({1-[1-(2,6-dioxopiperidin-3-yl)-2-oxo-3-(propan-2-yl)-2,3-dihydro-1H-1,3-benzodiazol-5-yl]piperidin-4-yl}methyl)-2,2-dimethylpiperazin-1-yl]methyl}piperidin-1-yl]methyl}-1-oxo-4-(trifluoromethyl)-2,3-dihydro-1H-isoindol-2-yl)phenyl]-3-[(4-methyl-4H-1,2,4-triazol-3-yl)methyl]cyclobutane-1-carbonitrile]"
< 5,35 to 70,"CC1c2nc(N3CCC(O[C@H]4CC[C@H](CN5C[C@H]6C[C@@H]5CN6Cc5cc6c(c(C(F)(F)F)c5)CN(c5cccc(C7(Cc8nncn8C)CCC7)c5)C6=O)CC4)CC3)ccc2C(=O)N1C1CCC(=O)NC1=O (stereo partly drawn) [Example 225, 3-[7-methyl-5-oxo-2-(4-{[(1r,4r)-4-{[(1R,4R)-5-{[2-(3-{1-[(4-methyl-4H-1,2,4-triazol-3-yl)methyl]cyclobutyl}phenyl)-3-oxo-7-(trifluoromethyl)-2,3-dihydro-1H-isoindol-5-yl]methyl}-2,5-diazabicyclo[2.2.1]heptan-2-yl]methyl}cyclohexyl]oxy}piperidin-1-yl)-5H,6H,7H-pyrrolo[3,4-b]pyridin-6-yl]piperidine-2,6-dione]"
< 5,> 70,"Cn1cnnc1CC1(c2cccc(N3Cc4c(cc(CN5CCC[C@H](CN6CCN(C[C@H]7CC[C@@H](OC8CCN(c9ccc%10c(c9F)CN(C9CCC(=O)NC9=O)C%10=O)CC8)CC7)CC6(C)C)C5)cc4C(F)(F)F)C3=O)c2)CC1 (stereo partly drawn) [Example 264, 3-[4-fluoro-1-oxo-5-(4-{[(1r,4r)-4-[(3,3-dimethyl-4-{[(3S)-1-{[2-(3-{1-[(4-methyl-4H-1,2,4-triazol-3-yl)methyl]cyclopropyl}phenyl)-3-oxo-7-(trifluoromethyl)-2,3-dihydro-1H-isoindol-5-yl]methyl}piperidin-3-yl]methyl}piperazin-1-yl)methyl]cyclohexyl]oxy}piperidin-1-yl)-2,3-dihydro-1H-isoindol-2-yl]piperidine-2,6-dione]"
< 5,35 to 70,"C[C@@H]1C[C@H](CN2CCC(CN3CCC(CN4CCN(c5ccc6c(c5)C(=O)N(C5CCC(=O)NC5=O)C6=O)CC4)CC3)CC2)CN(Cc2cc3c(c(C(F)(F)F)c2)CN(c2cccc(C4(Cc5nncn5C)COC4)c2)C3=O)C1 (stereo partly drawn) [Example 72, 2-(2,6-dioxopiperidin-3-yl)-5-[4-({1-[(1-{[(3R,5R)-5-methyl-1-{[2-(3-{3-[(4-methyl-4H-1,2,4-triazol-3-yl)methyl]oxetan-3-yl}phenyl)-3-oxo-7-(trifluoromethyl)-2,3-dihydro-1H-isoindol-5-yl]methyl}piperidin-3-yl]methyl}piperidin-4-yl)methyl]piperidin-4-yl}methyl)piperazin-1-yl]-2,3-dihydro-1H-isoindole-1,3-dione]"
